Data from PubChem BioAssay (NCI).
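How tested: cells in 96-well plates exposed to compound for 48 hours at five concentrations. TGI is the concentration that stops growth completely.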 Where a SMILES comes first, the peptide text is derived from it. [ ]: non-standard residue; d: D form. The star is where a group is joined. Bn2Val = CC(C)[C@@H](C(=O)*)N(Cc1ccccc1)Cc1ccccc1; NH(4-Cl-benzyl) = Clc1ccc(CN*)cc1; NMeV = CN[C@H](C(=O)O)C(C)C; dNMeA = CN[C@H](C)C(=O)O

Experiments:
Test in all cases: NCI-60 cell line screen, 48 h
[1] = test system: 786-0 renal
[2] = test system: A549 NSCLC
[3] = test system: EKVX NSCLC
[4] = test system: HCT-15 colon
[5] = test system: HOP-62 NSCLC
[6] = test system: MDA-MB-435
[7] = test system: NCI-H226 lung
[8] = test system: SF-268 CNS
[9] = test system: SK-OV-3 ovarian
[10] = test system: UACC-62 melanoma

SMILES	TGI [1]	TGI [2]	TGI [3]	TGI [4]	TGI [5]	TGI [6]	TGI [7]	TGI [8]	TGI [9]	TGI [10]
C=C(C)[C@H]1C2=CC(C)=C(O2)[C@@H](O[C@@H]2c3oc(cc3C)[C@H](C(=C)C)[C@H]3C=C(CC[C@H]2C(=C)C)C(=O)O3)[C@H](C(=C)C)CCC2=C[C@H]1OC2=O	> 100 µM	> 100 µM	> 100 µM	> 100 µM	> 100 µM	> 100 µM	> 100 µM	> 100 µM	> 100 µM	> 100 µM
O=C1c2c(O)cccc2-c2nn(CCNCCO)c3ccc(NCCNCCO)c1c23	0.895 µM	0.482 µM	4.8 µM	70.5 µM	0.63 µM	1.87 µM	0.0964 µM	1.17 µM	1.14 µM	0.344 µM
CC1(C)CC(=O)C2(CC(CSc3ccccc3)C(CS(=O)(=O)c3ccccc3)C2)C(=O)C1 (stereo not given)	> 100 µM	> 100 µM	> 100 µM	> 100 µM	> 100 µM	> 100 µM	> 100 µM	> 100 µM	> 100 µM	> 100 µM
COc1ccc(C(=O)CC(c2ccccc2)[C@H]2C(c3ccc(OC)cc3)=Nc3c(nc(SC)n(C)c3=O)NC2c2ccccc2)cc1 (stereo not given in full)	> 100 µM	> 100 µM	> 100 µM	> 100 µM	> 100 µM	> 100 µM	> 100 µM	> 100 µM	> 100 µM	> 100 µM
CC(C)/C(Cl)=N\OC(NC(=O)P(=O)(c1ccccc1)c1ccccc1)(C(F)(F)F)C(F)(F)F	22.8 µM	42.8 µM	63.2 µM	37.8 µM	32.9 µM	30.6 µM	38.4 µM	31.9 µM	> 100 µM	49 µM
CC(Oc1ccccc1Cl)C(=O)NN1C(=O)CSC1c1ccccc1 (stereo not given)	> 100 µM	> 100 µM	> 100 µM	> 100 µM	> 100 µM	> 100 µM	> 100 µM	> 100 µM	> 100 µM	> 100 µM
CCOC(=O)c1cc(C)nc2c1c(=O)n(-c1ccccc1)c(=O)n2CCCCN1CCN(c2ccccc2)CC1	> 100 µM	> 100 µM	> 100 µM	> 100 µM	> 100 µM	> 100 µM	> 100 µM	> 100 µM	> 100 µM	> 100 µM
c1ccc(CN2CCC(Nc3ccccc3)(c3nnnn3Cc3ccccc3)CC2)cc1	60.6 µM	> 100 µM	> 100 µM	97.9 µM	> 100 µM	> 100 µM	> 100 µM	> 100 µM	> 100 µM	> 100 µM
CN(C)CCn1c(CO)nc2c1c(=O)n(C)c(=O)n2C	> 100 µM	> 100 µM	> 100 µM	> 100 µM	> 100 µM	> 100 µM	> 100 µM	> 100 µM	> 100 µM	> 100 µM
Cc1c(C(=O)OCc2ccccc2)[n+](=O)c2cc(Cl)c(Cl)cc2n1[O-]	30.5 µM	28 µM	28.6 µM	34.1 µM	30.5 µM	42.4 µM	20.1 µM	39.8 µM	60 µM	31 µM
c1ccc(/C(=N/Nc2ccncn2)c2ccccn2)cc1	> 100 µM	> 100 µM	50.3 µM	> 100 µM	> 100 µM	> 100 µM	96.2 µM	50.9 µM	75.7 µM	> 100 µM
O=C(N/N=C/C=C/c1ccccc1)c1ccccc1Nc1ccccc1C(=O)N/N=C/C=C/c1ccccc1	> 100 µM	> 100 µM	> 100 µM	> 100 µM	70.4 µM	> 100 µM	> 100 µM	> 100 µM	> 100 µM	> 100 µM
O=C1OC[C@H]2[C@@H]1[C@H]1O[C@@H]2C2=C(CCC2)C1=O	> 100 µM	> 100 µM	> 100 µM	> 100 µM	> 100 µM	> 100 µM	> 100 µM	> 100 µM	> 100 µM	> 100 µM
Nc1nc(Cl)cc(NC23CC4CC(CC(C4)C2)C3)n1	> 100 µM	> 100 µM	> 100 µM	> 100 µM	> 100 µM	> 100 µM	> 100 µM	> 100 µM	> 100 µM	> 100 µM
CC(C)C(C/C=C1\CC(CO)(COC(=O)C2CCCCC2)OC1=O)C(C)C (stereo not given)	28.9 µM	32 µM	41.2 µM	38.8 µM	27.5 µM	> 100 µM	38.3 µM	33.5 µM	> 100 µM	> 100 µM
C/C(=N\Nc1nc2ccccc2n1C)c1cc2ccccc2cn1	3.82 µM	27.1 µM	5 µM	20.7 µM	> 26.3 µM	9.89 µM	2.22 µM	11.7 µM	0.761 µM	0.94 µM
Cn1c(=O)oc2nc(-c3ccccc3)cc(C(F)(F)F)c21	> 100 µM	> 100 µM	> 100 µM	> 100 µM	> 100 µM	> 100 µM	> 100 µM	> 100 µM	> 100 µM	> 100 µM

SMILES	TGI [1]	TGI [2]	TGI [3]	TGI [4]	TGI [5]	TGI [6]	TGI [7]	TGI [8]	TGI [9]	TGI [10]
O=c1[nH]n(Cc2ccccc2)c2ccc([N+](=O)[O-])cc12	> 100 µM	> 100 µM	> 100 µM	> 100 µM	> 100 µM	85.3 µM	> 100 µM	> 100 µM	> 100 µM	> 100 µM
CC(C)(C)[Si](C)(C)OCc1cccc(OCCOc2cccc(CO[Si](C)(C)C(C)(C)C)c2[N+](=O)[O-])c1[N+](=O)[O-]	> 100 µM	> 100 µM	> 100 µM	> 100 µM	> 100 µM	> 100 µM	> 100 µM	> 100 µM	> 100 µM	> 100 µM
C#CCn1c(=O)c(C)cn(/C(=C\C(=O)OCC)C(=O)OCC)c1=O	> 100 µM	39.2 µM	30.1 µM	8.23 µM	39.2 µM	21.2 µM	36.1 µM	35.7 µM	> 56.4 µM	23 µM
Cc1ccccc1N=C(N)Nc1ccccc1C	> 100 µM	> 100 µM	> 100 µM	> 100 µM	> 100 µM	> 100 µM	> 100 µM	> 100 µM	> 100 µM	> 100 µM
CCCCCCCCCCCCCCCCCCNc1nc(=O)n(C2CC(O)C(COP(=O)(O)O)O2)cc1F (stereo not given)	> 100 µM	> 100 µM	> 100 µM	> 100 µM	> 100 µM	> 100 µM	> 100 µM	> 100 µM	> 100 µM	> 100 µM
NN=C(CC(O)(C(F)(F)Cl)C(F)(F)Cl)CC(O)(C(F)(F)Cl)C(F)(F)Cl	> 10 µM	> 10 µM	> 10 µM	> 10 µM	> 10 µM	> 10 µM	> 10 µM	> 10 µM	> 10 µM	> 10 µM
C=CCOn1c(C=C)nc2ccc(C)cc21	32.9 µM	68.5 µM	37.8 µM	68.2 µM	78.3 µM	44.5 µM	37.5 µM	80.2 µM	> 100 µM	26.8 µM
CCN(CC)C(=S)SS(=O)(=O)c1cccc(N)c1	> 100 µM	> 100 µM	> 100 µM	> 100 µM	> 100 µM	> 100 µM	> 100 µM	> 100 µM	> 100 µM	> 100 µM
CN(C)/N=N/c1nc2c(c(=O)n(C)c(=O)n2C)n1CC(O)CO (stereo not given)	> 100 µM	> 100 µM	> 100 µM	> 100 µM	> 100 µM	> 100 µM	> 100 µM	> 100 µM	> 100 µM	> 100 µM
C=C=C(CC(CC(=C)Br)(C(=O)OC)C(=O)OC)S(=O)(=O)c1ccccc1	2.36 µM	10.6 µM	10.8 µM	3.44 µM	12.4 µM	4.17 µM	12.2 µM	7.45 µM	30.2 µM	3.11 µM
COc1ccc(OC)c(SC(CC(=O)c2ccccc2)c2ccccc2)c1 (stereo not given)	29.2 µM	91.7 µM	31.1 µM	35.4 µM	39.8 µM	26.7 µM	31.9 µM	40.2 µM	40.3 µM	30.7 µM
CC(C)[C@H](NC(=O)[C@H](C(C)C)N(Cc1ccccc1)Cc1ccccc1)C(=O)N(C)[C@H](C(=O)N1CCC[C@H]1C(=O)N(C)[C@H](C)C(=O)NCc1ccc(Cl)cc1)C(C)C (Bn2Val-V[NMeV]P[dNMeA]-{NH(4-Cl-benzyl)})	28.7 µM	> 100 µM	34 µM	41.2 µM	29.5 µM	79.8 µM	9.66 µM	11.2 µM	> 100 µM	13.8 µM
CN1C(=O)C(O)C[C@@H]1c1ccccc1 (stereo not given in full)	> 100 µM	> 100 µM	> 100 µM	> 100 µM	> 100 µM	> 100 µM	> 100 µM	> 100 µM	> 100 µM	> 100 µM
O=C(c1cccs1)N1CCN(C(=O)c2cccs2)C1=S	12.4 µM	19.8 µM	27.8 µM	17.7 µM	18.8 µM	10.2 µM	34.7 µM	20 µM	28.9 µM	16.6 µM
Nc1ccc(S(=O)(=O)Nc2nc3ccccc3nc2N2CCCCCC2)cc1	> 100 µM	> 100 µM	> 100 µM	95.5 µM	52.6 µM	41.1 µM	> 100 µM	> 100 µM	> 100 µM	39.8 µM
O=C(Nc1ccccc1C(=O)NCc1ccccc1)/C(=C/c1ccccc1)NC(=O)c1ccccc1	> 100 µM	> 100 µM	> 100 µM	> 100 µM	> 100 µM	> 100 µM	> 100 µM	> 100 µM	> 100 µM	> 100 µM
